Experimental data taken from patent US10071034B2, “Solvent compositions” (Amyris, Inc., priority 2014, dated 2018).

Assay: Oxidative stability
Type: physicochemical
Procedure: For each sample, a test composition was stored for 104 weeks at 25° C. The amount of composition remaining was tested and compared to the amount at the initial time. Further samples were stored for 6 days at 60° C. The amount of composition remaining was tested and compared to the amount at the initial time.

## C=C(C)[C@H]1CC=C(C)CC1 [d-limonene]
6 Days @ 60° C.
  amount of composition remaining compared to initial: 52.3%
104 Weeks @ 25° C.
  amount of composition remaining compared to initial: 24.0%
d-limonene versus Example 2 composition
  oxidative stability in comparison: less than that of the present solvent embodiment
